Common to all, as to type: cell-based, human
One assay deals with DO4 melanoma cells. The assay can be described thus: Cell survival assay (SRB). The settings on record: Table 10, standard deviations in parentheses, read-out: Cell line IC50 (μM) DO4. The procedure: (§1) Cell Lines and Culture Medium. All cell lines used in this study have been described previously (Parsons et al., 1986; Todaro et al., 1980; Glenn et al., 2004). All cell lines were cultured in 10% heat-inactivated foetal calf serum (CSL, Australia) in RPMI 1640 medium supplemented with 100 U/mL penicillin, 100 μg/mL streptomycin, and 3 mM HEPES at 5% CO2, 99% humidity at 37° C. Primary human fibroblasts were obtained from neonatal foreskins and cultured in the above medium. Routine mycoplasma tests were performed using Hoechst stain^i and were always negative.
(§2) Cell Survival Assay. Cells were plated into 96-well microtitre plates at 5×10^3 cells/well, and allowed to adhere overnight. Test compounds were added to culture medium at the indicated concentrations, and plates incubated in the above conditions for 24 hours. Following this incubation period, compounds and media were removed, and replaced with fresh culture medium. Cells were then grown for a further 72 hours before assay using sulforhodamine B (SRB; Sigma, St. Louis, Mo.) as previously described. Briefly, the culture medium was removed from the 96-well microtitre plates and the plates washed twice with phosphate buffered saline (PBS), before the cells were fixed with methylated spirits for 15 minutes. The plates were then rinsed with tap water and the fixed cells stained with 50 μL/well of SRB solution (0.4% sulforhodamine B (w/v) in 1% (v/v) acetic acid) over a period of 1 hour. The SRB solution was then removed from the wells and the plates rapidly washed two times with 1% (v/v) acetic acid. Protein bound dye was then solubilised with the addition of 100 μL of 10 mM unbuffered Tris, and incubated for 15 min at 25° C. Plates were then read at 564 nm on a VERSA max tunable microplate reader (Molecular Devices, Sunnyvale, Calif.).
(§3) For comparison their results are also shown for MM96L and NFF cell lines.

Assay [1] concerns CI-80-13S ovarian cancer cells. The assay can be described thus: Cell survival assay (SRB). As to conditions: Table 10, standard deviations in parentheses, read-out: Cell line IC50 (μM) C18013S. On the procedure: as §1, §2, §3
The next assay relates to JAM ovarian cancer cells. The assay can be described thus: Cell survival assay (SRB). As to conditions: Table 10, standard deviations in parentheses, read-out: Cell line IC50 (μM) JAM. The procedure: as §1, §2, §3
Assay [2] deals with MCF-7 breast cancer cells. The assay can be described thus: Cell survival assay (SRB). As to conditions: Table 10, standard deviations in parentheses, read-out: Cell line IC50 (μM) MCF7. The procedure: as §1, §2, §3
Assay [3] has as its system DU145 prostate cancer cells. The assay can be described thus: Cell survival assay (SRB). The settings on record: Table 10, standard deviations in parentheses, read-out: Cell line IC50 (μM) DU145. The procedure:
as §1, §2, §3

The test system of another assay is SkMel28 melanoma cells. The assay can be described thus: Cell survival assay (SRB). The settings on record: Table 10, standard deviations in parentheses, read-out: Cell line IC50 (μM) SkMel. On the procedure: as §1, §2, §3
Assay [4] deals with NFF, neonatal foreskin fibroblasts. The assay can be described thus: Cell survival assay (clonogenic survival, SRB), normal cells. Put shortly:
(§4)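 Cells (5×10^3/well, RPMI 1640 with 10% FCS) treated 24 h with compound at 0.01-10 μg/mL, then washed and grown 72 h drug-free at 37 °C, 5% CO2. Survival read by SRB staining after methylated-spirit fixation, absorbance 564 nm.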

The subject of the next assay is MM96L melanoma cells. The assay can be described thus: Cell survival assay (clonogenic survival, SRB). A digest of the protocol: as §4
The next assay has as its system histone deacetylase. The assay can be described thus: Histone hyperacetylation (histone H4, Triton-acetic acid-urea gel) in MM96L cells. As to conditions: (figure legends: 5 μg/mL, 8 hours). The procedure: FIG. 1. Acetylation of Histones. […] Lane 1: untreated. Lane 2: compound of example 22 Lane 3: compound of example 40. Lane 4: TSA. Non-acetylated (A), mono-acetylated (B), di-acetylated (C), tri-acetylated (D) and tetra-acetylated (E) histone H4 are indicated.
FIG. 2. Acetylation of histones MM96L cells were treated with 5 μg/ml of various compound for 8 hr, before harvest and analysis of histone H4 acetylation by Triton-acetic acid-urea gel as previously described (Saito et al., 1991; Qiu et al., 1999). Lane 1: untreated: lane 2: Compound of example 73; lane 3: Compound of example 40; lane 4: TSA. Non-acetylated (A), mono-acetylated (B), di-acetylated (C), tri-acetylated (D) and tetra-acetylated (E) histone H4 are indicated.
Histone Hyperacetylation.

[5] abbreviates: Table 10, standard deviations in parentheses, read-out: Cell line IC50 (μM) NFF.
The mark [6] stands for this setting: Table 6, IC50 (NFF)/IC50 (MM96L).
[7] abbreviates: Table 10, standard deviations in parentheses, read-out: Cell line IC50 (μM) MM96L.
The mark [8] stands for this setting: Homo sapiens, Fibroblast, 24 h, Table 6, 24 hours with compound, further growth, SRB, read-out: IC50 (μM) NFF.
The mark [9] stands for this setting: Homo sapiens, Fibroblast, Table 10, standard deviations in parentheses, read-out: Cell line IC50 (μM) NFF.
Setting [10] is: Homo sapiens, MM96L, 24 h, Table 6, 24 hours with compound, further growth, SRB, read-out: IC50 (μM) MM96L.
Where [11] appears, read: Homo sapiens, MM96L, Table 10, standard deviations in parentheses, read-out: Cell line IC50 (μM) MM96L.
Setting [12] is: Table 5, 24 hours with compound, further growth, SRB, read-out: IC50 NFF.
The mark [13] stands for this setting: Table 5, 24 hours with compound, further growth, SRB, read-out: IC50 MM96L.
Setting [14] is: Table 5, Selectivity Index = IC50 (NFF)/IC50 (MM96L).

Like-named read-outs stand apart in the source and are kept apart here.

For orientation: IC50 means the point on the concentration scale where inhibition reaches its midpoint.

Consider `CN(C)c1ccc(C(=O)N[C@@H](CSCCCC(=O)NO)C(=O)N[C@H]2c3ccccc3C[C@H]2O)cc1` [Example 70], for which the IC50 is 7.12 µM in the assay on DO4 melanoma cells; 2.5 µM in [1]; 7.22 µM in the assay on JAM ovarian cancer cells; 3.3 µM in assay [2]; 3.76 µM in [3]; 6.14 µM with SkMel28 melanoma cells. Moreover, the IC50 in assay [4] (Table 6, 24 hours with compound, further growth, SRB, read-out: IC50 (μM) NFF) amounted to 8.2 ± 0.8 µM; in [4] (setting [5]), 8.2 µM; in the assay with MM96L melanoma cells (Table 6, 24 hours with compound, further growth, SRB, read-out: IC50 (μM) MM96L), 0.9 ± 0.05 µM; with MM96L melanoma cells (setting [7]), 0.9 µM. In the assay on MM96L melanoma cells (setting [6]), this compound came in with a Selectivity of 9.1.

For `CN(C)c1ccc(NC(=O)[C@H](CSCCCC(=O)NO)NC(=O)c2ccc(N(C)C)cc2)cc1` [Example 59], the half-inhibitory concentration (IC50) with DO4 melanoma cells (Homo sapiens, DO4) was determined as 1.05 µM; in [1] (Homo sapiens, C180-13S), 0.39 µM; with JAM ovarian cancer cells (Homo sapiens), 0.43 µM; in assay [2] (Homo sapiens, MCF7), 0.39 µM; in [3] (Homo sapiens, DU-145) it was 0.33 µM; in the assay with SkMel28 melanoma cells (Homo sapiens, SK-MEL-28), 1.09 µM. In addition, the IC50 was 0.6 ± 0.1 µM in assay [4] (setting [8]); 0.6 µM in [4] (setting [9]); 0.1 ± 0.1 µM in the assay with MM96L melanoma cells (setting [10]); 0.1 µM in the assay on MM96L melanoma cells (setting [11]); at most 0.5 µM in the assay with MM96L melanoma cells (Homo sapiens, MM96L, most preferred compounds, exemplary examples, read-out: potency of IC50 against the MM96 melanoma cells). The Selectivity in the assay on MM96L melanoma cells (setting [6]) amounted to 6.0.

As to `CN(C)c1ccc(C(=O)N[C@@H](CSCCCC(=O)NO)C(=O)Nc2cccnc2)cc1` [Example 78], the IC50 in the assay on DO4 melanoma cells (Homo sapiens, DO4) came out at 2.48 µM; in [1] (Homo sapiens, C180-13S), 1.36 µM; with JAM ovarian cancer cells (Homo sapiens), 2.3 µM; in assay [2] (Homo sapiens, MCF7) it was 0.97 µM; in assay [3] (Homo sapiens, DU-145) it was 1.06 µM; in the assay with SkMel28 melanoma cells (Homo sapiens, SK-MEL-28), 2.33 µM. Further, the IC50 was found to be 11 ± 1 µM in [4] (setting [8]), 3.6 µM in [4] (setting [9]), 2.1 ± 0.1 µM in the assay with MM96L melanoma cells (setting [10]) and 0.51 µM in the assay on MM96L melanoma cells (setting [11]). In the assay on MM96L melanoma cells (setting [6]), this compound registered a Selectivity of 5.6.

As for `O=C(CCCSC[C@H](NC(=O)c1cc2ccccc2[nH]1)C(=O)NCc1ccccc1)NO` [Example 40], the IC50 with DO4 melanoma cells stood at 1.3 µM; in [1], 0.4 µM; in the assay with JAM ovarian cancer cells, 0.75 µM; in [2], 0.84 µM; in [3], 0.4 µM; in the assay on SkMel28 melanoma cells it was 1.7 µM. Besides, the half-maximal inhibitory concentration (IC50) in assay [4] (setting [12]) was determined as 0.8 ± 0.2 µM; in [4] (setting [5]), 0.8 µM; in the assay on MM96L melanoma cells (setting [13]) it was 0.13 ± 0.09 µM; with MM96L melanoma cells (setting [7]) it was 0.13 µM. Besides, the “acetylation state of histone H4” value in the assay with histone deacetylase is on record as “hyperacetylation of H4”. In the assay with MM96L melanoma cells (setting [14]), this compound had a Selectivity of 6.2.

Consider `CN(C)c1ccc(C(=O)N[C@@H](CSCCCC(=O)NO)C(=O)Nc2ccc(-c3ccccc3)cc2)cc1` [Example 61], for which the half-inhibitory concentration (IC50) was found to be 0.83 µM in the assay with DO4 melanoma cells (Homo sapiens, DO4); 0.38 µM in [1] (Homo sapiens, C180-13S); 0.6 µM with JAM ovarian cancer cells (Homo sapiens); 0.48 µM in assay [2] (Homo sapiens, MCF7); 0.37 µM in assay [3] (Homo sapiens, DU-145); 1.11 µM in the assay with SkMel28 melanoma cells (Homo sapiens, SK-MEL-28). Also, the IC50 was found to be 0.32 ± 0.05 µM in [4] (setting [8]), 0.32 µM in assay [4] (setting [9]), 0.17 ± 0.05 µM with MM96L melanoma cells (setting [10]) and 0.17 µM in the assay with MM96L melanoma cells (setting [11]). The same compound yielded a Selectivity in the assay with MM96L melanoma cells (setting [6]) of 1.9.

In the case of `O=C(CCCSC[C@H](NC(=O)C(O)(c1ccccc1)c1ccccc1)C(=O)NCc1ccccc1)NO` [Example 44], the IC50 in the assay on DO4 melanoma cells was 2.1 µM; in [1], 0.6 µM; with JAM ovarian cancer cells, 1.8 µM; in assay [2] it was 0.7 µM; in [3] it was 1.7 µM; in the assay with SkMel28 melanoma cells, 2.5 µM. Also, the IC50 in assay [4] (setting [12]) is 9.3 ± 0.7 µM; in assay [4] (setting [5]), 0.8 µM; in the assay on MM96L melanoma cells (setting [13]), 1.8 ± 0.2 µM; with MM96L melanoma cells (setting [7]) it was 0.2 µM. In the assay on MM96L melanoma cells (setting [14]), this compound displayed a Selectivity of 5.2.

Regarding `CN(C)c1ccc(C(=O)N[C@@H](CSCCCC(=O)NO)C(=O)NCc2ccccc2)cc1` [Example 22], the IC50 in the assay on DO4 melanoma cells was determined as 2 µM; in assay [1], 0.7 µM; in the assay on JAM ovarian cancer cells, 1.24 µM; in [2], 0.59 µM; in [3], 0.61 µM; with SkMel28 melanoma cells, 3 µM. Also, the concentration for half-maximal inhibition (IC50) in assay [4] (setting [12]) amounted to 0.35 ± 0.07 µM; in assay [4] (setting [5]), 0.35 µM; with MM96L melanoma cells (setting [13]), 0.14 ± 0.09 µM; with MM96L melanoma cells (setting [7]), 0.14 µM. Also, in the assay with histone deacetylase, the “acetylation state of histone H4” value is recorded as “hyperacetylation of H4”. For the same compound, the Selectivity with MM96L melanoma cells (setting [14]) is 2.5.
